According to patent US8450315B2, “Phosphoinositide 3-kinase inhibitor compounds and methods of use” (Genentech, Inc., priority 2006, dated 2013):

Legend:
Assay type in all cases: biochemical
[1] = target: human PI3K isoform beta (p110 beta) (Homo sapiens, UniProt P42338); assay: p110 isoform selectivity scintillation proximity assay (SPA), beta isoform; conditions: fold potency over beta relative to alpha, calculated from IC50 values (SPA)
Experimental: (§1) Binding of Formula Ia and Ib compounds from Tables 1a and 1b to purified preparations of p110 isoforms alpha, beta, delta, and gamma was measured by a Scintillation Proximity Assay (SPA) to determine binding activity (IC50 μMol) and selectivity of binding of beta, delta, and gamma isoforms relative to alpha (Example 365). These values are expressed in Table 2.
(§2) The ability of Formula Ia and Ib compounds from Tables 1a and 1b to inhibit the lipid kinase activity of purified preparations of human PI3K isoforms alpha, beta, delta, and gamma was determined by a radiometric scintillation proximity assay (SPA, GE Healthcare, Amersham Biosciences). Concentration dependent inhibition at 50% (IC50 μMol) was determined for all four isoforms […] and fold potency over beta, delta, and gamma relative to alpha was calculated for a selection of compounds in Table 2. Each compound has a p110 alpha IC50<1 μMol.

[2] = target: human PI3K isoform gamma (p110 gamma) (Homo sapiens, UniProt P48736); assay: p110 isoform selectivity scintillation proximity assay (SPA), gamma isoform; conditions: fold potency over gamma relative to alpha, calculated from IC50 values (SPA)
Sequence of human PI3K isoform gamma (p110 gamma) (P48736 whole entry, canonical isoform): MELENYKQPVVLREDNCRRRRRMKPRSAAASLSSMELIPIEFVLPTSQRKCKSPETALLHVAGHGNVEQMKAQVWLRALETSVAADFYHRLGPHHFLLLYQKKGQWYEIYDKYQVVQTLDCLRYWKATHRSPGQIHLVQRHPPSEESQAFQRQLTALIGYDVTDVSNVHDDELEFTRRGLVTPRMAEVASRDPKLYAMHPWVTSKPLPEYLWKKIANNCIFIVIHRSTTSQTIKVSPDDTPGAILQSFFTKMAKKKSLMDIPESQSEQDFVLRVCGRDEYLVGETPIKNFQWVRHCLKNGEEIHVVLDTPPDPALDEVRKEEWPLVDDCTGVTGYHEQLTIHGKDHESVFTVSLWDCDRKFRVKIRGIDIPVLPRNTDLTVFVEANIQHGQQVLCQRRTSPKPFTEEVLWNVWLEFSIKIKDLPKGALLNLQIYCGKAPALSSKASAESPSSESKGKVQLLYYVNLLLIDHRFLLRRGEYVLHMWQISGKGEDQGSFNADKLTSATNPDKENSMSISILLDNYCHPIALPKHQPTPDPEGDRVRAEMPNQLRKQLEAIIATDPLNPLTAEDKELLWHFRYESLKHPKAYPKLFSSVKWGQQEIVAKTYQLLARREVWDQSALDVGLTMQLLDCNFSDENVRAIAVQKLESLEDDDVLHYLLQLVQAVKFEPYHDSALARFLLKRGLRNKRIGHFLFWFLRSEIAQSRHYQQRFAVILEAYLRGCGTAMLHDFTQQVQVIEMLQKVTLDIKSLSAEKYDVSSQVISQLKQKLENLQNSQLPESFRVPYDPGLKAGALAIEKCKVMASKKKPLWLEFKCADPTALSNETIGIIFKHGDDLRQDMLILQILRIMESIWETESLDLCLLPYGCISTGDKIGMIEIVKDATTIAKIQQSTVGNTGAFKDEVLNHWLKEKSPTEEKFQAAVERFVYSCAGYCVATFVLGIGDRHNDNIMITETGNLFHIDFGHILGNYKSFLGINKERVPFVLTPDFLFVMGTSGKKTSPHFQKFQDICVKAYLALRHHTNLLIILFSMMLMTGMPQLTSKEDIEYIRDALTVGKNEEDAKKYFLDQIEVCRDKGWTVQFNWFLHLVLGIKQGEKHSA
Experimental: as §1, §2

[3] = target: human PI3K isoform delta (p110 delta) (Homo sapiens, UniProt O00329); assay: p110 isoform selectivity scintillation proximity assay (SPA), delta isoform; conditions: fold potency over delta relative to alpha, calculated from IC50 values (SPA)
Sequence of human PI3K isoform delta (p110 delta) (O00329 whole entry, canonical isoform): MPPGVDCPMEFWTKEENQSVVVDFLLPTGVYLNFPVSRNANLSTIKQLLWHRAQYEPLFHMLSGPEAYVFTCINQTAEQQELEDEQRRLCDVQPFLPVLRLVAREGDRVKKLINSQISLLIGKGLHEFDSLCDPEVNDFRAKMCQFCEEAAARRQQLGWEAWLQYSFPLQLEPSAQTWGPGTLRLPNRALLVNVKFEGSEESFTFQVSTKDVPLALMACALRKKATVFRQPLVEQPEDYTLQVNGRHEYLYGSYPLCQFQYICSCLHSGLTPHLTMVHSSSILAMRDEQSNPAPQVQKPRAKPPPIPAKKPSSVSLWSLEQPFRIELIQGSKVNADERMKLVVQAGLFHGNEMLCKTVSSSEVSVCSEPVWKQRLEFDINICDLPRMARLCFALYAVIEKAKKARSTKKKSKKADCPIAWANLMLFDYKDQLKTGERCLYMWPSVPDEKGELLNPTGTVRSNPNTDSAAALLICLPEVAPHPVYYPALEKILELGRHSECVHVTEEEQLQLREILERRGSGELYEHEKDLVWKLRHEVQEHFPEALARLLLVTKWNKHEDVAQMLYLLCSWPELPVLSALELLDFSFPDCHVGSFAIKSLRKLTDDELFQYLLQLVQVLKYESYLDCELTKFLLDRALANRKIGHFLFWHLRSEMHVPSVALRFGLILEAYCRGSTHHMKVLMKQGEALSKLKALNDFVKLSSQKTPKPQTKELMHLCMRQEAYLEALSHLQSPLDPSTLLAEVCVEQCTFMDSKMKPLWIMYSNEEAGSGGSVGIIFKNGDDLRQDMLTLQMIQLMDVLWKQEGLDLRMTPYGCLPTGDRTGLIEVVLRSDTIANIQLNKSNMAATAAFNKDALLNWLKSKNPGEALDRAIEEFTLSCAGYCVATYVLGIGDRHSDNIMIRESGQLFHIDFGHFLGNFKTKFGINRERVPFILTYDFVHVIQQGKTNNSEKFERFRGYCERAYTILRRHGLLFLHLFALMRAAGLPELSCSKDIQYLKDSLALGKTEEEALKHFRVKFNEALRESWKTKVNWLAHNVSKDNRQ
Sequence of human PI3K isoform delta (p110 delta) (P27986 whole entry partner, canonical isoform): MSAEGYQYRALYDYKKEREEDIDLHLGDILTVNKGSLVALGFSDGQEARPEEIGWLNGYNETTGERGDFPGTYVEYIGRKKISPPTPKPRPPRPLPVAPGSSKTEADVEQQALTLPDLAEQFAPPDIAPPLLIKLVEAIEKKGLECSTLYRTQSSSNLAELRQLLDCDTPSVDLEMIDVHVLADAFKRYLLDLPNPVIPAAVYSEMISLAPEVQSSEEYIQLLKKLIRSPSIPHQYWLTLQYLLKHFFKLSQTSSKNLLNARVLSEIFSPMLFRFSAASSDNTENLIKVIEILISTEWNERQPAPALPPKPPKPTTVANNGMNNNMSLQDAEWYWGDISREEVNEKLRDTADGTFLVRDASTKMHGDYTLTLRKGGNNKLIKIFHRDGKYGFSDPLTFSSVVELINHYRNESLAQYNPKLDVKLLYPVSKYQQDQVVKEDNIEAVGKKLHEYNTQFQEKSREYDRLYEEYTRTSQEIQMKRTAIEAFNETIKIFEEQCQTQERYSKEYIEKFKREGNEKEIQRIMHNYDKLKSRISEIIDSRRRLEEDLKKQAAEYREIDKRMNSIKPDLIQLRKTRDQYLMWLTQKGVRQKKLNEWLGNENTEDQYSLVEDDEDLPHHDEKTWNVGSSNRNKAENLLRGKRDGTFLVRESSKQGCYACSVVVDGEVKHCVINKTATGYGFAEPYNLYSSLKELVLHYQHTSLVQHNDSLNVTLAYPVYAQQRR
Experimental: as §1, §2

Sequence of human PI3K isoform beta (p110 beta) (P42338 whole entry, canonical isoform): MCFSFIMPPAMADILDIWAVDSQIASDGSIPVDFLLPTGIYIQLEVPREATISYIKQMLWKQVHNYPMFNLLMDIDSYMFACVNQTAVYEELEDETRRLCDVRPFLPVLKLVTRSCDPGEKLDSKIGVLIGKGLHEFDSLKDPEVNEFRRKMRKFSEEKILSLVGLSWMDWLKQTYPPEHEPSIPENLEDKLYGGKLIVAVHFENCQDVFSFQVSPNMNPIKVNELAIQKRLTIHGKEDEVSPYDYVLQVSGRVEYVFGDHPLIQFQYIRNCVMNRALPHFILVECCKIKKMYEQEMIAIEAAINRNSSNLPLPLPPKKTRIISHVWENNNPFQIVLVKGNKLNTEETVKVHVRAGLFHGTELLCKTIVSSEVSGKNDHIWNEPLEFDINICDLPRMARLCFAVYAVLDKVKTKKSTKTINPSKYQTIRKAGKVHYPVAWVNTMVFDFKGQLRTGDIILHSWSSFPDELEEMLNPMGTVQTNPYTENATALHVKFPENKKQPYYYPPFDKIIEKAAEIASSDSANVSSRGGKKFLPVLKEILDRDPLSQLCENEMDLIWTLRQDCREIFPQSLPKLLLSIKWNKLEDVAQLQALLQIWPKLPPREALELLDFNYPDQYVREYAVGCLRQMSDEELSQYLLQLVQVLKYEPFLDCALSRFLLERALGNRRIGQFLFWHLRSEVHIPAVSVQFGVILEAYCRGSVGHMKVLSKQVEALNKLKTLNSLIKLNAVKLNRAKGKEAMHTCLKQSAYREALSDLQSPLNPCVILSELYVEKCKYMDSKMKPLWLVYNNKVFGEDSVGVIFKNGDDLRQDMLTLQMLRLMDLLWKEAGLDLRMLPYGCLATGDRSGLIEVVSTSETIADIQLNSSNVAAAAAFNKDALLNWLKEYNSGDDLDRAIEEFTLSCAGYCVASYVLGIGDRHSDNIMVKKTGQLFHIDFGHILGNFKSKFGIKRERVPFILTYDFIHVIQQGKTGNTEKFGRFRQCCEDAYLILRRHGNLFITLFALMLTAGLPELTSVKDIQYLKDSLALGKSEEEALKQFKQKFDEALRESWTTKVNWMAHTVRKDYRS
Sequence of human PI3K isoform beta (p110 beta) (P27986 whole entry partner, canonical isoform): as the sequence (P27986 whole entry partner, canonical isoform) above

How did the alpha/beta [1] turn out when CNC(=O)c1cccc(-c2cc3nc(-c4cccc5[nH]ncc45)nc(N4CCOCC4)c3s2)c1 [Compound 101, 3-(2-(1H-indazol-4-yl)-4-morpholinothieno[3,2-d]pyrimidin-6-yl)-N-methylbenzamide] was run?
Its alpha/beta is greater than 10.

And the alpha/gamma [2]?
Its alpha/gamma is greater than 10.

What about the alpha/delta [3] of the same compound?
Its alpha/delta is less than 10.

Which alpha/beta [1] does the source give for OC1(c2cc3nc(-c4cccc5[nH]ncc45)nc(N4CCOCC4)c3s2)CCC1 [Compound 133, 1-(2-(1H-indazol-4-yl)-4-morpholinothieno[3,2-d]pyrimidin-6-yl)cyclobutanol] here?
The alpha/beta was less than 10.

What about the alpha/gamma [2] of the same compound?
Its alpha/gamma is greater than 10.

And the alpha/delta [3]?
Its alpha/delta is less than 10.

NCC(=O)Nc1cccc(-c2cc3nc(-c4cccc5[nH]ncc45)nc(N4CCOCC4)c3s2)c1 [Compound 137, N-(3-(2-(1H-indazol-4-yl)-4-morpholinothieno[3,2-d]pyrimidin-6-yl)phenyl)-2-aminoacetamide] was tested. Which alpha/beta [1] did it give?
Its alpha/beta is greater than 10.

And the alpha/gamma [2]?
Its alpha/gamma is less than 10.

What about the alpha/delta [3] of the same compound?
Its alpha/delta is less than 10.

CCNC(=O)c1cc2nc(-c3cccc4[nH]ncc34)nc(N3CCOCC3)c2s1 [Compound 170, N-ethyl-2-(1H-indazol-4-yl)-4-morpholinothieno[3,2-d]pyrimidine-6-carboxamide] was tested. Which alpha/beta [1] did it give?
The alpha/beta was less than 10.

And the alpha/gamma [2]?
The alpha/gamma was less than 10.

What about the alpha/delta [3] of the same compound?
The alpha/delta was less than 10.

How did the alpha/beta [1] turn out when O=C(NOCC1CC1)c1cc2nc(-c3cccc4[nH]ncc34)nc(N3CCOCC3)c2s1 [Compound 202, N-(cyclopropylmethoxy)-2-(1H-indazol-4-yl)-4-morpholinothieno[3,2-d]pyrimidine-6-carboxamide] was run?
The alpha/beta was less than 10.

What about the alpha/gamma [2] of the same compound?
Its alpha/gamma is greater than 10.

And the alpha/delta [3]?
Its alpha/delta is less than 10.

With c1cc(-c2nc(N3CCOCC3)c3sc(-c4cn[nH]c4)cc3n2)c2cn[nH]c2c1 [Compound 203, 2-(1H-indazol-4-yl)-4-morpholino-6-(1H-pyrazol-4-yl)thieno[3,2-d]pyrimidine] as the compound, how does the alpha/beta [1] read?
Its alpha/beta is less than 10.

What about the alpha/gamma [2] of the same compound?
Its alpha/gamma is greater than 10.

And the alpha/delta [3]?
The alpha/delta was less than 10.

Which alpha/beta [1] does the source give for C[C@H](O)CNCc1cc2nc(-c3cccc4[nH]ncc34)nc(N3CCOCC3)c2s1 [Compound 205, (S)-1-((2-(1H-indazol-4-yl)-4-morpholinothieno[3,2-d]pyrimidin-6-yl)methylamino)propan-2-ol] here?
Its alpha/beta is less than 10.

And the alpha/gamma [2]?
The alpha/gamma was greater than 10.

And the alpha/delta [3]?
The alpha/delta was less than 10.

What does the source list for O=S(=O)(Nc1cccc(O)c1)c1cc2nc(-c3cccc4[nH]ncc34)nc(N3CCOCC3)c2s1 [Compound 208, 6-(3-hydroxyphenylaminosulfonyl)-2-(1H-indazol-4-yl)-4-morpholinothieno[3,2-d]pyrimidine]?
alpha/beta [1]: >10; alpha/gamma [2]: >10; alpha/delta [3]: <10

How did the alpha/beta [1] turn out when O=S(=O)(NCCN1CCCCC1)c1cc2nc(-c3cccc4[nH]ncc34)nc(N3CCOCC3)c2s1 [Compound 218, 6-(2-piperidinylethylaminosulfonyl)-2-(1H-indazol-4-yl)-4-morpholinothieno[3,2-d]pyrimidine] was run?
Its alpha/beta is greater than 10.

What about the alpha/gamma [2] of the same compound?
Its alpha/gamma is greater than 10.

And the alpha/delta [3]?
The alpha/delta was less than 10.

Which results are given for OCCNc1cc2nc(-c3cccc4[nH]ncc34)nc(N3CCOCC3)c2s1 [Compound 226, 2-(2-(1H-indazol-4-yl)-4-morpholinothieno[3,2-d]pyrimidin-6-ylamino)ethanol]?
alpha/beta [1]: <10; alpha/gamma [2]: >10; alpha/delta [3]: <10

c1ccc(-c2cc3nc(-c4cccc5[nH]ncc45)nc(N4CCOCC4)c3o2)cc1 [Compound 233, 2-(1H-indazol-4-yl)-4-morpholino-6-phenylfuro[3,2-d]pyrimidine] was tested. Which alpha/beta [1] did it give?
Its alpha/beta is greater than 10.

And the alpha/gamma [2]?
Its alpha/gamma is less than 10.

And the alpha/delta [3]?
The alpha/delta was less than 10.

What does the source list for CC(C)(O)c1cc2nc(-c3cccc4[nH]ncc34)nc(N3CCOCC3)c2s1 [Compound 235, 2-(2-(1H-indazol-4-yl)-4-morpholinothieno[3,2-d]pyrimidin-6-yl)propan-2-ol]?
alpha/beta [1]: >10; alpha/gamma [2]: >10; alpha/delta [3]: <10

For OCc1cccc(-c2cc3nc(-c4cccc5[nH]ncc45)nc(N4CCOCC4)c3s2)c1 [Compound 237, (3-(2-(1H-indazol-4-yl)-4-morpholinothieno[3,2-d]pyrimidin-6-yl)phenyl)methanol], which alpha/beta [1] is on record?
The alpha/beta was greater than 10.

And the alpha/gamma [2]?
The alpha/gamma was greater than 10.

What about the alpha/delta [3] of the same compound?
The alpha/delta was less than 10.

What does the source list for CC(=O)Nc1cccc(-c2cc3nc(-c4cccc5[nH]ncc45)nc(N4CCOCC4)c3s2)c1 [Compound 238, N-(3-(2-(1H-indazol-4-yl)-4-morpholinothieno[3,2-d]pyrimidin-6-yl)phenyl)acetamide]?
alpha/beta [1]: >10; alpha/gamma [2]: >10; alpha/delta [3]: <10

What does the source list for O=C(NCCN1CCCCC1)c1cc2nc(-c3cccc4[nH]ncc34)nc(N3CCOCC3)c2s1 [Compound 257, 2-(1H-indazol-4-yl)-4-morpholino-N-(2-(piperidin-1-yl)ethyl)thieno[3,2-d]pyrimidine-6-carboxamide]?
alpha/beta [1]: <10; alpha/gamma [2]: >10; alpha/delta [3]: <10

CN(C)C(=O)c1cc2nc(-c3cccc4[nH]ncc34)nc(N3CCOCC3)c2s1 [Compound 263, 2-(1H-indazol-4-yl)-N,N-dimethyl-4-morpholinothieno[3,2-d]pyrimidine-6-carboxamide] was tested. Which alpha/beta [1] did it give?
The alpha/beta was less than 10.

And the alpha/gamma [2]?
Its alpha/gamma is greater than 10.

What about the alpha/delta [3] of the same compound?
Its alpha/delta is less than 10.

What does the source list for CS(=O)(=O)c1cccc(-c2cc3nc(-c4cccc5[nH]ncc45)nc(N4CCOCC4)c3s2)c1 [Compound 265, 2-(1H-indazol-4-yl)-6-(3-(methylsulfonyl)phenyl)-4-morpholinothieno[3,2-d]pyrimidine]?
alpha/beta [1]: >10; alpha/gamma [2]: >10; alpha/delta [3]: <10

How did the alpha/beta [1] turn out when CN(C)Cc1cc2nc(-c3cccc4[nH]ncc34)nc(N3CCOCC3)c2s1 [Compound 304, (2-(1H-indazol-4-yl)-4-morpholinothieno[3,2-d]pyrimidin-6-yl)-N,N-dimethylmethanamine] was run?
The alpha/beta was 10.

And the alpha/gamma [2]?
Its alpha/gamma is greater than 10.

What about the alpha/delta [3] of the same compound?
The alpha/delta was less than 10.

For O=C(NCc1cc2nc(-c3cccc4[nH]ncc34)nc(N3CCOCC3)c2s1)N1CCOCC1 [Compound 305, N-((2-(1H-indazol-4-yl)-4-morpholinothieno[3,2-d]pyrimidin-6-yl)methyl)morpholine-4-carboxamide], which alpha/beta [1] is on record?
The alpha/beta was less than 10.

What about the alpha/gamma [2] of the same compound?
Its alpha/gamma is greater than 10.

What about the alpha/delta [3] of the same compound?
Its alpha/delta is less than 10.

What does the source list for c1cc(-c2nc(N3CCOCC3)c3sc(Cn4ccnc4)cc3n2)c2cn[nH]c2c1 [Compound 312, 6-((1H-imidazol-1-yl)methyl)-2-(1H-indazol-4-yl)-4-morpholinothieno[3,2-d]pyrimidine]?
alpha/beta [1]: <10; alpha/gamma [2]: >10; alpha/delta [3]: <10

How did the alpha/beta [1] turn out when COC/C=C/c1cc2nc(-c3cccc4[nH]ncc34)nc(N3CCOCC3)c2s1 [Compound 334] was run?
Its alpha/beta is greater than 10.

What about the alpha/gamma [2] of the same compound?
Its alpha/gamma is greater than 10.

And the alpha/delta [3]?
Its alpha/delta is less than 10.

Which results are given for C[C@H](O)CNC(=O)c1cccc(-c2cc3nc(-c4cccc5[nH]ncc45)nc(N4CCOCC4)c3s2)c1 [Compound 336, 3-(2-(1H-indazol-4-yl)-4-morpholinothieno[3,2-d]pyrimidin-6-yl)-N-((S)-2-hydroxypropyl)benzamide]?
alpha/beta [1]: >10; alpha/gamma [2]: >10; alpha/delta [3]: <10

O=C(O)c1cccc(-c2cc3nc(-c4cccc5[nH]ncc45)nc(N4CCOCC4)c3s2)c1 [Compound 338, 3-(2-(1H-indazol-4-yl)-4-morpholinothieno[3,2-d]pyrimidin-6-yl)benzoic acid] was tested. Which alpha/beta [1] did it give?
The alpha/beta was greater than 10.

And the alpha/gamma [2]?
Its alpha/gamma is greater than 10.

And the alpha/delta [3]?
Its alpha/delta is less than 10.

What does the source list for CS(=O)(=O)N1CCC(C(O)c2cc3nc(-c4cccc5[nH]ncc45)nc(N4CCOCC4)c3s2)CC1 (stereo not drawn) [Compound 353, (2-(1H-indazol-4-yl)-4-morpholinothieno[3,2-d]pyrimidin-6-yl)(4-N-methylsulfonylpiperidin-4-yl)methanol]?
alpha/beta [1]: <10; alpha/gamma [2]: >10; alpha/delta [3]: <10

Cc1c(-c2cccc(S(C)(=O)=O)c2)sc2c(N3CCOCC3)nc(-c3cccc4[nH]ncc34)nc12 [Compound 360, 2-(1H-indazol-4-yl)-7-methyl-6-(3-(methylsulfonyl)phenyl)-4-morpholinothieno[3,2-d]pyrimidine] was tested. Which alpha/beta [1] did it give?
The alpha/beta was greater than 10.

What about the alpha/gamma [2] of the same compound?
The alpha/gamma was greater than 10.

And the alpha/delta [3]?
Its alpha/delta is greater than 10.

Which results are given for COc1ccc(NCc2cc3nc(-c4cccc5[nH]ncc45)nc(N4CCOCC4)c3s2)cn1 [Compound 368, N-((2-(1H-indazol-4-yl)-4-morpholinothieno[3,2-d]pyrimidin-6-yl)methyl)-6-methoxypyridin-3-amine]?
alpha/beta [1]: <10; alpha/gamma [2]: >10; alpha/delta [3]: <10

What does the source list for CC(C)(NC(=O)c1ccccc1)c1cc2nc(-c3cccc4[nH]ncc34)nc(N3CCOCC3)c2s1 [Compound 388, N-(2-(2-(1H-indazol-4-yl)-4-morpholinothieno[3,2-d]pyrimidin-6-yl)propan-2-yl)benzamide]?
alpha/beta [1]: >10; alpha/gamma [2]: >10; alpha/delta [3]: <10

CN(Cc1cc2nc(-c3cccc4[nH]ncc34)nc(N3CCOCC3)c2s1)C(=O)c1ccccc1 [Compound 390, N-((2-(1H-indazol-4-yl)-4-morpholinothieno[3,2-d]pyrimidin-6-yl)methyl)-N-methylbenzamide] was tested. Which alpha/beta [1] did it give?
Its alpha/beta is less than 10.

And the alpha/gamma [2]?
Its alpha/gamma is less than 10.

And the alpha/delta [3]?
The alpha/delta was less than 10.
